In data set [1] the test system is polyamine oxidase (PAO) in Snu-739 cells. Description: PAO assay kit. In kind it is cell-based. The conditions noted are these: Snu-739, 10 μM, 24 h. An excerpt: (§1) We measured the total PAO level using a PAO assay kit according to our previous report (Liu et al., [2019]) (Hepeng Biotechnology, Cat. HEPENGBIO156).
Data set [2] concerns polyamine oxidase (PAO) in Snu-368 cells. Description: PAO assay kit. In kind it is cell-based. The conditions noted are these: Snu-368, 10 μM, 24 h.
Source text: as §1

In another data set the test system is Snu-739 cells. Nature of the data set: Annexin V-FITC/PI staining, flow cytometry. The class given is cell-based. As to the method:
Annexin V-FITC/PI staining was used to detect the apoptosis of Snu-739 cells by FCM (flow cytometry). Firstly, we plated the cells in six-well plates (1 × 10^5 cells/well). 5c 10 μM and amonafide 10 μM were added and incubated for 24 h. And then we harvested the cells and washed three times with PBS. Then the protocol was stained according to our previous report (Wang et al., [2012]; Li et al., [2016], [2018]; Dai et al., [2017a]; Ma et al., [2017a],[b]; Ma et al., [2018]; Liu et al., [2019]) and was performed by FCM (BD Biosciences, San Jose, CA, USA).
(In general: A flow cytometer gives signals particle by particle.)

Data set [3] has as its system Put, Spd, and Spm in Snu-368 cells. Nature of the data set: Polyamine contents assay (HPLC, dansyl derivatives). The class given is cell-based. The conditions noted are these: Snu-368, 24 h. The source says:
(§2) According to our previous report (Wang et al., [2012]; Li et al., [2016], [2018]; Dai et al., [2017a]; Ma et al., [2017a],[b], [2018]; Liu et al., [2019]), the contents of Put, Spd, and Spm were detected by a G1321A fluorescence detector in both Snu-368 and Snu-739 cells. Cells were harvested and dansyl chloride was used as the derivation reagent. After converting to the corresponding dansyl derivatives, Put, Spd, and Spm were separated by using High Performance Liquid Chromatogra (HPLC) (Agilent 1260, Agilent Technologies, USA) with a C18 chromatographic column (25 × 4.6 mm, 5 μm). As the internal standard substance, 1,6-diaminohexane was used. The excitation and emission wavelengths were 340 and 515 nm, separately. The mobile phase was methanol–water from 65:35 to 100:0 within 30 min.

For data set [4], the system named is Put, Spd, and Spm in Snu-739 cells. The description is as above. In kind it is cell-based. The following applies: Snu-739, 24 h.
Source text: as §2

The next data set relates to HCC xenografts. Description: In vivo antitumor assay, HCC xenografts. The conditions noted are these: for tumor suppression (inhibition rate, tumor weight): tail vein, once every day for 7 days. An excerpt: Healthy BALB/c mice (Cat. SCXK 2016-0006, Beijing, China) aged 5 weeks were used for the determination of anticancer activity. We obtained BALB/c mice from the Laboratory Animal Center, Academy of Military Medical Science. They were raised in compliance with the Guide for the Care and Use of Laboratory Animals. The weight of healthy BALB/c mice is 18–22 g.
We firstly injected HCC cells with 1 × 10^6 cells per mouse to determine the anticancer activity. After a week, the tumors increased to 80–120 mm^3. The mice were divided into four groups for 5c (3 mg/kg), 5c (5 mg/kg), the positive control amonafide (5 mg/kg), or the negative control physiological saline. We injected 5c or amonafide via the tail vein every day for a total of seven treatments. Body weight was determined every day. And then the mice were sacrificed after 7 days. The tumor tissues were weighed and the inhibition rate [((average tumor weight of negative control group – average tumor weight of the drug treated or positive control group)/average tumor weight of control group) × 100] was calculated. The organ index [(organ weight/body weight) × 100%] was also counted including heart, liver, kidney, lung, and spleen at the last day. Both 5c and amonafide were dissolved in glucose injection. And they were used immediately after preparation.
The highest FI levels in Snu-739 also indicate a significant therapy for HCC. Therefore, HCC animal models were used to test the in vivo antitumor activities. Mice bearing HCC xenografts were treated with 5c (3 mg/kg), 5c (5 mg/kg), the positive control amonafide (5 mg/kg), and normal saline (negative control) once every day for 7 days by tail vein (Figure 3).

For data set [5], the system named is six cancer cell lines (Snu-368, Snu-739, MCF-7, MDA-MB-231, A549, A549cisR). Description: MTT cytotoxicity assay, whole panel. In kind it is cell-based. The following applies: versus amonafide and cisplatin. The method, then:
(§3) We incubated hepatic carcinoma (Snu-368 and Snu-739), breast carcinoma (MDA-MB-231 and MCF-7), cisplatin-sensitive lung cancer cells A549, and cisplatin-resistant lung cancer cells A549cisR in 96-well plates in a 5% CO2 atmosphere at 37°C for 24 h (5,000 cells/well). After adding drugs in freshly prepared culture medium (100 μl) and incubating for another 48 h, we added 20 μl MTT (5 mg/ml) and incubated for another 3 h. At last, after the medium was removed, 150 μl DMSO was added. By using a Bio-Rad 680 microplate reader, the absorbance was measured at 570 nm and the IC50 values were calculated using the GraphPad Prism software based on three parallel experiments.
In vitro assays were firstly conducted to evaluate the inhibitory effect of polyamine-based naphthalimide conjugates 5a-5c, 7a-7b, and 11a-11b on six cancer cell lines, namely, Snu-368 and Sun-739 (hepatoma cell line), MCF-7 (breast carcinoma), MDA-MB-231 (triple negative breast cancer), cisplatin-sensitive lung cancer A549, and resistant A549cisR cells by using traditional MTT tests. Two classic antitumor agents in clinic trials, amonafide and cisplatin, were chosen as the reference drugs (Table 1). The preliminary structure–activity relationship (SAR) can be obtained from the in vitro biological results.

In data set [6] the test system is HL-7702 (normal liver cell). Nature of the data set: MTT cytotoxicity on matched normal cells. The class given is cell-based. As to the method:
as §3
The selectivity for cancer cells over normal healthy cells is important for ideal anticancer agents, thereby mitigating undesired toxic side effects associated with chemotherapy. The selectivity of polyamine-based dinitro-naphthalimide conjugates 5a-5c was evaluated by Snu-368 and Snu-739 (hepatic carcinoma), and the matched normal cells HL-7702 (normal liver cell). Moreover, dinitro-naphthalimide conjugates 5a-5c (SI 1.94–7.47) show lower cytotoxicity in normal cells.

The IC50 is the concentration that gives 50% inhibition. For `O=C1c2cc([N+](=O)[O-])cc3cc([N+](=O)[O-])cc(c23)C(=O)N1CCCCNCCCNC1CC1` [5c], the “relative PAO activity versus control group” value in data set [1] and in data set [2] was 1.5–2 folds each time. The same molecule had an early apoptotic cells in the data set on Snu-739 cells (10 μM, 24 h) of 35.00%. The late apoptotic cells in the data set on Snu-739 cells (10 μM, 24 h) worked out at 38.50%. The same molecule displayed an apoptotic cells in the data set with Snu-739 cells (total of early and late) of 73.50%. Also, the “contents of Put, Spd, and Spm versus control group” value in data set [3] and in data set [4] was “downregulated” each time. In addition, the “tumor suppression (inhibition rate, tumor weight)” value is given as 57.97% in the data set on HCC xenografts (3 mg/kg) and 65.90% in the data set on HCC xenografts (5 mg/kg). The average tumor volume in the data set with HCC xenografts (day 7, control group 900 mm^3, dose not stated) is given as 480 mm^3. In the data set with HCC xenografts (heart, liver, kidney, lung, spleen, end of experiment), the “organ weight indexes / toxicological profile in vivo” value was “no obvious pathological changes”. In data set [5], the “FI (fold increase), range over cell lines” value was 3.59–48.63. The “SI (selectivity index) IC50 in HL-7702/IC50 in Snu-368” value in data set [6] came out at 5.21. Also, the “SI (selectivity index) IC50 in HL-7702/IC50 in Snu-739” value in data set [6] is listed as 7.47. Also, the “SI (selectivity index), range over Snu-368 and Snu-739” value in data set [6] (HL-7702 versus Snu-368 and Snu-739) was 5.21–7.47. Further, the concentration for half-maximal inhibition (IC50) in data set [6] (Homo sapiens, L02, normal liver cell, read-out: IC50 HL-7702) worked out at 5.68 ± 0.83 µM.

For the origin of these results see publication PMC7160362, “A Polyamine-Based Dinitro-Naphthalimide Conjugate as Substrates for Polyamine Transporters Preferentially Accumulates in Cancer Cells and Minimizes Side Effects in vitro and in vivo” (Frontiers in Chemistry, 2020).
